In patent US8680150B2, “Small molecule hematopoietic growth factor mimetic compounds that activate hematopoietic growth factor receptors” (Ligand Pharmaceuticals, Inc., priority 2009, dated 2014):

System: UT7/EPO Cell line
Test: Cell proliferation assay in UT7/EPO cell line (ViaLight Plus)
Format: cell-based, human
Conditions: compound at 10 uM; efficacy relative to EPO (100%); UT7/EPO cells expressing endogenous EPO receptor, starved of EPO overnight; 72 hours at 37° C.
Procedure: The primary testing for the exemplified compounds was performed in UT7/EPO Cell line. UT7/EPO is human leukemia cell line, obtained from Dr. Norio Komatsu (Blood, Vol 82 (2), pp 456-464, 1993). These cells express endogenous EPO receptor and are dependant upon EPO for growth and proliferation. Briefly, the cells were starved of EPO overnight and plated in 96 or 384 well plates. The compounds were added to the cells at 10 uM concentration. The plates were then incubated at 37° C. for 72 hours. The proliferative effect of the compounds was measured by a commercially available kit from Lonza (ViaLight Plus).

Row | Structure (SMILES) | Activity (%)
1 | COc1ccc(O)c(/C=N/NC(=O)c2cc3cc(O)ccc3o2)c1 [Compound 174, 5-Hydroxybenzofuran-2-carboxyl(2-hydroxy-5-methoxybenzylidene)hydrazide] | 19%
2 | COc1cccc(/C=N/NC(=O)c2ccc(OCc3ccc(Cl)cc3)cc2)c1 [Compound 133, 4-(4-Chlorobenzyloxy)benz(3-methoxybenzylidene)hydrazide] | 14%
3 | CCNC(=O)/C=C/c1cccc(/C=N/NC(=O)c2ccc(N(C)C)cc2)c1 [Compound 179, 4-Dimethylaminobenz(2E-ethylaminocarboxyethenylbenzylidene)hydrazide] | 4.3%
4 | CN(C)c1ccc(C(=O)N/N=C/c2ccc3c(Cl)c[nH]c3c2)cc1 [Compound 180, 4-Dimethylaminobenz(3-chloro-6-indolidene)hydrazide] | 3.2%
5 | CC(=O)c1cccc(/C=N/NC(=O)c2ccc(-c3ccccc3)cc2)c1 [Compound 165, 4-Phenylbenz(3-acetylbenzylidene)hydrazide] | 14%
6 | O=C(N/N=C/c1ccc2ccccc2c1)c1ccc(-c2ccccc2)cc1 [Compound 125, 4-Phenylbenz(2-naphthylidene)hydrazide] | 15%
7 | C=Cc1cccc(/C=N/NC(=O)c2ccc(N(C)C)cc2)c1 [Compound 167, 4-Dimethylaminobenz(3-vinylbenzylidene)hydrazide] | 11%
8 | COc1cccc(/C=N/NC(=O)c2ccc(OCc3ccc(C(F)(F)F)cc3)cc2)c1 [Compound 154, 4-(4-Trifluoromethylbenzyloxy)benz(3-methoxybenzylidene)hydrazide] | 6.7%
9 | O=C(/C=C/c1ccc(-c2ccccc2)cc1)N/N=C/c1ccc(OCCO)cc1 [Compound 198, 2E-(4-Phenylphenyl)acryl(4-(2-hydroxyethoxy)benzylidene)hydrazide] | 4.6%
10 | COc1cc(/C=N/NC(=O)c2ccc(OCc3ccc(Cl)cc3)cc2)ccc1O [Compound 141, 4-(4-Chlorobenzyloxy)benz(4-hydroxy-3-methoxybenzylidene)hydrazide] | 17%
11 | COc1cccc(/C=N/NC(=O)c2ccc(OCc3ccc(F)cc3)cc2)c1 [Compound 143, 4-(4-Fluorobenzyloxy)benz(3-methoxybenzylidene)hydrazide] | 14%
12 | CN(C)c1ccc(C(=O)N/N=C/c2cccc(/C=C/c3ccc(Cl)cc3)c2)cc1 [Compound 186, 4-Dimethylaminobenz(2E-(4-chlorophenyl)ethenylbenzylidene)hydrazide] | 9.6%
13 | CN(C)c1ccc(C(=O)N/N=C/c2cccc(OCCO)c2)cc1 [Compound 195, 4-Dimethylaminobenz(3-(2-hydroxyethoxy)benzylidene)hydrazide] | 7.3%
14 | COc1ccc(O)c(/C=N/NC(=O)COc2ccc3[nH]ccc3c2)c1 [Compound 173, 5-Indolyloxoacet(2-hydroxy-5-methoxybenzylidene)hydrazide] | 12%
15 | CN(C)c1ccc(C(=O)N/N=C/c2cccc(CO)c2)cc1 [Compound 171, 4-Dimethylaminobenz(3-hydroxymethylbenzylidene)hydrazide] | 16%
16 | Cc1ccccc1COCc1cccc(/C=N/NC(=O)c2ccc(N(C)C)cc2)c1 [Compound 188, 4-Dimethylaminobenz(3-(2-methylbenzyloxy)methylbenzylidene)hydrazide] | 5.5%
17 | COc1cccc(/C=N/NC(=O)c2ccc(-c3ccccc3)cc2)c1 [Compound 140, 4-Phenylbenz(3-methoxybenzylidene)hydrazide] | 14%
18 | COc1cccc(/C=N/NC(=O)c2ccc(-n3cccc3)cc2)c1 [Compound 135, 4-(1-Pyrrolyl)benz(3-methoxybenzylidene)hydrazide] | 12%
19 | COc1cccc(/C=N/NC(=O)c2ccc(-n3ccnc3)cc2)c1 [Compound 193, 4-(1-Imidazolyl)benz(3-methoxybenzylidene)hydrazide] | 7.3%
20 | COc1cccc(/C=N/NC(=O)c2ccc(-c3ccccc3F)cc2)c1 [Compound 161, 4-(2-Fluorophenyl)phenylbenz(3-methoxybenzylidene)hydrazide] | 12%
21 | COc1cccc(/C=N/NC(=O)c2ccc(OCc3ccc(Br)cc3)cc2)c1 [Compound 142, 4-(4-Bromobenzyloxy)benz(3-methoxybenzylidene)hydrazide] | 6.0%
22 | COc1ccc(C(=O)N/N=C/c2cccc(OC)c2)cc1 [Compound 128, 4-Methoxybenz(3-methoxybenzylidene)hydrazide] | 5.6%
23 | COc1ccc2c(c1)cc(C(=O)N/N=C/c1ccc(O)cc1)n2C [Compound 121, (1-Methyl-5-methoxyindole-2-)carboxyl(4-hydroxybenzylidene)hydrazide] | 12%
